Results taken from ChEMBL document CHEMBL1201862, “PubChem BioAssay data set” (2004).
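Where inhibition never reached the appropriate level, the endpoint shown equals the highest concentration tested. Otherwise, values were interpolated linearly from a five-concentration, 48-hour dose response in 96-well plates. Abbreviation: GI50, concentration required for 50% inhibition of growth.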 Calls of active or inactive are those of the source. No stated cut-off is given here; in the data, active = GI50 up to about 1.1 µM and inactive = higher.

Legend:
Test in all cases: NCI anticancer screen, dose series, 48 h
CCRF-CEM = system: CCRF-CEM
NCI-H522 = system: NCI-H522
NCI-H23 = system: NCI-H23
TK-10 = system: TK-10
UACC-257 = system: UACC-257
SN12C = system: SN12C
UO-31 = system: UO-31
SK-MEL-28 = system: SK-MEL-28
DU-145 = system: DU-145
SK-OV-3 = system: SK-OV-3
786-0 = system: 786-0
SF-539 = system: SF-539
Hs-578T = system: Hs-578T
SNB-75 = system: SNB-75
HL-60 = system: HL-60
IGROV-1 = system: IGROV-1
OVCAR-8 = system: OVCAR-8
PC-3 = system: PC-3
HOP-62 = system: HOP-62

| SMILES | GI50 (CCRF-CEM) | GI50 (NCI-H522) | GI50 (NCI-H23) | GI50 (TK-10) | GI50 (UACC-257) | GI50 (SN12C) | GI50 (UO-31) | GI50 (SK-MEL-28) | GI50 (DU-145) | GI50 (SK-OV-3) | GI50 (786-0) | GI50 (SF-539) | GI50 (Hs-578T) | GI50 (SNB-75) | GI50 (HL-60) | GI50 (IGROV-1) | GI50 (OVCAR-8) | GI50 (PC-3) | GI50 (HOP-62) |
| --- | --- | --- | --- | --- | --- | --- | --- | --- | --- | --- | --- | --- | --- | --- | --- | --- | --- | --- | --- |
| Oc1ncc(Cl)c(O)n1 | > 100 µM (inactive) | > 100 µM (inactive) | > 100 µM (inactive) | > 100 µM (inactive) | > 100 µM (inactive) | > 100 µM (inactive) | > 100 µM (inactive) | > 100 µM (inactive) | > 100 µM (inactive) | > 100 µM (inactive) | > 100 µM (inactive) | > 100 µM (inactive) | > 100 µM (inactive) | > 100 µM (inactive) | > 100 µM (inactive) | > 100 µM (inactive) | > 100 µM (inactive) | > 100 µM (inactive) |  |
| Cc1c(N=C(S)Nc2ccc(Cl)cc2)c(=O)n(-c2ccccc2)n1C | > 100 µM (inactive) | > 100 µM (inactive) | > 100 µM (inactive) | > 100 µM (inactive) | > 100 µM (inactive) |  | > 100 µM (inactive) | > 100 µM (inactive) | > 100 µM (inactive) | > 100 µM (inactive) | > 100 µM (inactive) | > 100 µM (inactive) | > 100 µM (inactive) | > 100 µM (inactive) | > 100 µM (inactive) | > 100 µM (inactive) |  | > 100 µM (inactive) | > 100 µM (inactive) |
| CCOC(=O)/C(=C\c1ccc(C#N)cc1)C(C)=O | 13.5 µM (inactive) | 11.5 µM (inactive) | 17.5 µM (inactive) | 24 µM (inactive) | 18.6 µM (inactive) | 25.2 µM (inactive) | 13.8 µM (inactive) |  | 18.2 µM (inactive) | 40.8 µM (inactive) | 18.4 µM (inactive) | 29 µM (inactive) | 24.3 µM (inactive) | 14.6 µM (inactive) | 34 µM (inactive) | 16.8 µM (inactive) | 36.6 µM (inactive) | 18.5 µM (inactive) | 36.8 µM (inactive) |
| COC(=O)c1c(O)ccc2c1c1c(n2Cc2cccc(C)c2)C(=O)c2ccccc2C1=O | 4.86 µM (inactive) | 11.5 µM (inactive) | 11.4 µM (inactive) | 12 µM (inactive) | 16.6 µM (inactive) | 7.76 µM (inactive) | 5.92 µM (inactive) | 15.3 µM (inactive) | 14.4 µM (inactive) | 11.4 µM (inactive) | 11.9 µM (inactive) | 14.8 µM (inactive) | 12.4 µM (inactive) |  | 16.6 µM (inactive) | 11.4 µM (inactive) | 7.31 µM (inactive) | 11 µM (inactive) | 16.1 µM (inactive) |
| NCCC1(N)CCNCC1 | > 100 µM (inactive) | > 100 µM (inactive) | > 100 µM (inactive) | > 100 µM (inactive) | > 100 µM (inactive) | > 100 µM (inactive) | > 100 µM (inactive) | 48.4 µM (inactive) | > 100 µM (inactive) | > 100 µM (inactive) | > 100 µM (inactive) | > 100 µM (inactive) | > 100 µM (inactive) | 13.7 µM (inactive) | > 100 µM (inactive) | > 100 µM (inactive) | > 100 µM (inactive) | > 100 µM (inactive) |  |
| C1CSCCCSCCCSCCCSCCCSCCCSCCCSCCCSC1 | > 100 µM (inactive) | > 100 µM (inactive) | > 100 µM (inactive) | > 100 µM (inactive) | > 100 µM (inactive) | > 100 µM (inactive) | > 100 µM (inactive) | > 100 µM (inactive) | > 100 µM (inactive) | > 100 µM (inactive) | > 100 µM (inactive) | > 100 µM (inactive) | > 100 µM (inactive) |  | > 100 µM (inactive) | > 100 µM (inactive) | > 100 µM (inactive) | > 100 µM (inactive) | > 100 µM (inactive) |
| O=c1ccn2n1CCCCC2 | > 100 µM (inactive) | > 100 µM (inactive) | > 100 µM (inactive) | > 100 µM (inactive) | > 100 µM (inactive) | > 100 µM (inactive) | > 100 µM (inactive) | > 100 µM (inactive) | > 100 µM (inactive) | > 100 µM (inactive) | > 100 µM (inactive) | > 100 µM (inactive) | > 100 µM (inactive) |  | > 100 µM (inactive) | > 100 µM (inactive) | > 100 µM (inactive) | > 100 µM (inactive) | > 100 µM (inactive) |
| CC1=C(C(N)=O)C(c2ccncc2)C(C#N)=C2SCC(=O)N12 (stereo not drawn) | > 100 µM (inactive) | > 100 µM (inactive) | > 100 µM (inactive) |  | > 100 µM (inactive) | > 100 µM (inactive) | > 100 µM (inactive) | > 100 µM (inactive) | > 100 µM (inactive) | > 100 µM (inactive) | > 100 µM (inactive) | > 100 µM (inactive) | > 100 µM (inactive) | > 100 µM (inactive) | > 100 µM (inactive) | > 100 µM (inactive) | > 100 µM (inactive) | > 100 µM (inactive) | > 100 µM (inactive) |
| CSc1cc(-c2cccs2)sc1-c1cc(SC)c(-c2sc(-c3sc(-c4cccs4)cc3SC)cc2SC)s1 | > 100 µM (inactive) | > 100 µM (inactive) | > 100 µM (inactive) | > 100 µM (inactive) | > 100 µM (inactive) | > 100 µM (inactive) |  | > 100 µM (inactive) | > 100 µM (inactive) | > 100 µM (inactive) | > 100 µM (inactive) | > 100 µM (inactive) | > 100 µM (inactive) |  | > 100 µM (inactive) | > 100 µM (inactive) | > 100 µM (inactive) | > 100 µM (inactive) | > 100 µM (inactive) |
| C=CCn1c(N)c(C#N)c(C#N)c1-c1ccccc1 | > 100 µM (inactive) | > 100 µM (inactive) | > 100 µM (inactive) | > 100 µM (inactive) | > 100 µM (inactive) | > 100 µM (inactive) | > 100 µM (inactive) |  | > 100 µM (inactive) | > 100 µM (inactive) | > 100 µM (inactive) | > 100 µM (inactive) | > 100 µM (inactive) | 26.2 µM (inactive) | > 100 µM (inactive) | > 100 µM (inactive) | > 100 µM (inactive) | > 100 µM (inactive) | > 100 µM (inactive) |
| Cc1nc(-c2cccnc2)sc1C(=O)CC(=O)C(=O)Nc1cccc(NC(=O)C(=O)CC(=O)c2sc(-c3cccnc3)nc2C)n1 | > 100 µM (inactive) | > 100 µM (inactive) | > 100 µM (inactive) |  | > 100 µM (inactive) | > 100 µM (inactive) | > 100 µM (inactive) | > 100 µM (inactive) | > 100 µM (inactive) | > 100 µM (inactive) | > 100 µM (inactive) | > 100 µM (inactive) | > 100 µM (inactive) | 68.5 µM (inactive) | > 100 µM (inactive) | > 100 µM (inactive) | > 100 µM (inactive) | > 100 µM (inactive) |  |
| CN(c1ccc(Cl)cc1)S(=O)(=O)c1cccc([N+](=O)[O-])c1 | 27.5 µM (inactive) | 65.5 µM (inactive) | 34.7 µM (inactive) | > 100 µM (inactive) | > 100 µM (inactive) | > 100 µM (inactive) | 39.9 µM (inactive) | 95.9 µM (inactive) | > 100 µM (inactive) | > 100 µM (inactive) | > 100 µM (inactive) | 66.4 µM (inactive) | > 100 µM (inactive) | 56.5 µM (inactive) | > 10 µM (inactive) | > 100 µM (inactive) | > 100 µM (inactive) | 14.3 µM (inactive) | 89.3 µM (inactive) |
| O=C(/C=C1\Sc2ccccc2N=C1CC(=O)c1ccccc1)c1ccccc1 | 2.36 µM (inactive) | 15.8 µM (inactive) | 35.6 µM (inactive) | 5.73 µM (inactive) | 97.3 µM (inactive) | 3.88 µM (inactive) | 8.49 µM (inactive) | 8.89 µM (inactive) | 6.65 µM (inactive) | 9.82 µM (inactive) | 3.51 µM (inactive) | 13.2 µM (inactive) | 44.7 µM (inactive) |  | 4.89 µM (inactive) | 3.61 µM (inactive) | 3.67 µM (inactive) | 8.22 µM (inactive) | 2.32 µM (inactive) |
| CCOC(=O)CC1(O)CCCCC1(Sc1ccc(C)cc1)Sc1ccc(C)cc1 (stereo not drawn) | 4.76 µM (inactive) | 18.7 µM (inactive) | 49.4 µM (inactive) | > 100 µM (inactive) | 24.1 µM (inactive) | 39.4 µM (inactive) | 41.8 µM (inactive) | 39.2 µM (inactive) | 59.2 µM (inactive) | > 100 µM (inactive) | 48.2 µM (inactive) | > 100 µM (inactive) | 25.4 µM (inactive) | 27.5 µM (inactive) | 24.7 µM (inactive) |  | 56.1 µM (inactive) | 33.3 µM (inactive) | 54.2 µM (inactive) |
| O=C(N/N=C/c1ccc2c(c1)OCO2)Nc1ccccc1Cl | 1.13 µM (inactive) | 0.233 µM (active) | 1.66 µM (inactive) | 2.15 µM (inactive) | 2.23 µM (inactive) | 0.847 µM (active) | 4.25 µM (inactive) | 9.95 µM (inactive) | 2.02 µM (inactive) | 2.77 µM (inactive) | 3.69 µM (inactive) | 0.918 µM (active) | 1.66 µM (inactive) |  | 0.565 µM (active) | 0.622 µM (active) | 2.56 µM (inactive) | 2.21 µM (inactive) | 2.61 µM (inactive) |
